SMILES strings stand for the structures. Where two headings read alike, the source gives them in different places.

In data set [1] the target is T1, α2C receptor (Homo sapiens, UniProt P18825).
T1 construct: host or cells: LM(tk-) cells, line L-α2C
T1 sequence (P18825 1-462): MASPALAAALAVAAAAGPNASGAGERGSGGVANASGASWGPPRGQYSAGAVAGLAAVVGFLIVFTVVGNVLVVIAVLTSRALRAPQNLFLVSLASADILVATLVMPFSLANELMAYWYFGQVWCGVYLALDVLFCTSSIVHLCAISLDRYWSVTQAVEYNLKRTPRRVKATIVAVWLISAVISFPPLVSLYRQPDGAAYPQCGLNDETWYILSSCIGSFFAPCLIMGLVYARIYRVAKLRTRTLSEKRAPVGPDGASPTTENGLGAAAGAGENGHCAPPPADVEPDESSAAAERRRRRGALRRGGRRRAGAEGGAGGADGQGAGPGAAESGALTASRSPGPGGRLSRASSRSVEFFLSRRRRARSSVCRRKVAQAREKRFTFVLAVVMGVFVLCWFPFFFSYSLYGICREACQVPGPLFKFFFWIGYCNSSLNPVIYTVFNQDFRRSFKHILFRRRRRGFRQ
Description: Competition binding, [3H]rauwolscine, human α2C receptor. Particulars: [3H]rauwolscine, human receptor, LM(tk-) cell lysates; mean; read-out: PKi alpha-2 2c (converted). From the text: (§1) The protocols for these experiments are given below.
(§2) α2 Human Adrenergic Receptors:
(§3) To determine the potency of […], antagonists at the α2 receptors, LM(tk−) cell lines stably transfected with the genes encoding the α2A, α2B, and α2C receptors were used. The cell line expressing the α2A receptor is designated L-α2A, and was deposited on Nov. […] The cell line expressing the α2B receptor is designated L-NGC-α2B, and was deposited on Oct. […] The cell line expressing the α2C receptor is designated L-α2C, and was deposited on Nov. […] Cell lysates were prepared as described above (see Radioligand Binding Assays), and suspended in 25 mM glycylglycine buffer (pH 7.6 at room temperature). Equilibrium competition binding assay were performed using [3H]rauwolscine (0.5 nM), and nonspecific binding was determined by incubation with 10 μM phentolamine. The bound radioligand was separated by filtration through GF/B filters using a cell harvester.

For data set [2], the target named is T2, α2B receptor (Homo sapiens, UniProt P18089).
T2 construct: host or cells: LM(tk-) cells, line L-NGC-α2B
T2 sequence (P18089 1-450): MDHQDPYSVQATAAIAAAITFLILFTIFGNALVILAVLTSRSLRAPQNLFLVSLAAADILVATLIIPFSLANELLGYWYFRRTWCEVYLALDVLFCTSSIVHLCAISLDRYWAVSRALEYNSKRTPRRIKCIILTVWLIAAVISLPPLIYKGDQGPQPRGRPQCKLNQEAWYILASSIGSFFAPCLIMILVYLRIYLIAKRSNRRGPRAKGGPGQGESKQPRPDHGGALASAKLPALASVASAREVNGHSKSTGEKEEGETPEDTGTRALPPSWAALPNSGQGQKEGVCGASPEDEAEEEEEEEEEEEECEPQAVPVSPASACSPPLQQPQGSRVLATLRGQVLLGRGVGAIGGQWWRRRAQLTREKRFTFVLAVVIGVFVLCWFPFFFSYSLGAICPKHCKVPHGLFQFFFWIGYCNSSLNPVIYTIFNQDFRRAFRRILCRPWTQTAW
Description: Competition binding, [3H]rauwolscine, human α2B receptor. Particulars: [3H]rauwolscine, human receptor, LM(tk-) cell lysates; mean; read-out: PKi alpha-2 2b (converted).
Description: as §1, §2, §3

In data set [3] the target is T3, α2A receptor (Homo sapiens, UniProt P08913).
T3 construct: host or cells: LM(tk-) cells, line L-α2A
T3 sequence (P08913 1-465): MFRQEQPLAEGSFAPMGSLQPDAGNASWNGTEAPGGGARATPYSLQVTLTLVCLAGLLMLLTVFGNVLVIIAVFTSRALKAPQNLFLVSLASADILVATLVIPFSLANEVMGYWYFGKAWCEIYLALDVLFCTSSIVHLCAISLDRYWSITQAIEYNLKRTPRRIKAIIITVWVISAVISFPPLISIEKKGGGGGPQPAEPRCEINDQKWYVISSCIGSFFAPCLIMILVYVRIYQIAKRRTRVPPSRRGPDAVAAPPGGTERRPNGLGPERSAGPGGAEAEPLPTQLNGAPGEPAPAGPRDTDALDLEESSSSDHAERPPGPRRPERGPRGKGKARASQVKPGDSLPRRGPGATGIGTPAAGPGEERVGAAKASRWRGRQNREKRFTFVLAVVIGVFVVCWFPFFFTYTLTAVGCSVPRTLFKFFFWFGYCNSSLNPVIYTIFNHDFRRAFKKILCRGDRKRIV
As to the kind of experiment: Competition binding, [3H]rauwolscine, human α2A receptor. Particulars: [3H]rauwolscine, human receptor, LM(tk-) cell lysates; mean; read-out: PKi alpha-2 2a (converted).
Description: as §1, §2, §3

For data set [4], the target named is T4, α1A Human Adrenergic Receptor (Homo sapiens, UniProt P25100).
T4 construct: The entire coding region of α1A (1719 bp); expressed in transfected cells
T4 sequence (P25100 1-572): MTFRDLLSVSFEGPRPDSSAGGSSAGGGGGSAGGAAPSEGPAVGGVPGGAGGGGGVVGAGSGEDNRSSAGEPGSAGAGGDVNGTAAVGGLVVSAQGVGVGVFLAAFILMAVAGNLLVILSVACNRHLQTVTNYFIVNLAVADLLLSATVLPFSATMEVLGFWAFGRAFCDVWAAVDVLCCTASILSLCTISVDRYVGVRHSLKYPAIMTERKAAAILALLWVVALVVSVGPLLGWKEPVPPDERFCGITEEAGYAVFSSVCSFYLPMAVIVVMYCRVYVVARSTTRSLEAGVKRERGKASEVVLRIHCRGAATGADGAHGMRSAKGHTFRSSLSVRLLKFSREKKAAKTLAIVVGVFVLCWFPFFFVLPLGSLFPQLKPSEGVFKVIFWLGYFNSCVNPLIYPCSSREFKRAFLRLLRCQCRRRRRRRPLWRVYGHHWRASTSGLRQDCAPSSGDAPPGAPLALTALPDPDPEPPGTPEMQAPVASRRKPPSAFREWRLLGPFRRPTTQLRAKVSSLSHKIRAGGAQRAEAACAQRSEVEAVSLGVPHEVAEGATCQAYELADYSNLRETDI
As to the kind of experiment: Radioligand binding, [3H]prazosin, cloned human α1A adrenergic receptor. Particulars: [3H]prazosin, cloned human receptor, LM(tk-) cell membranes; mean; read-out: PKi alpha-1 1a (converted). The essentials:
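Transfected LM(tk−) cells are lysed by sonication and membranes collected at 30,000× g. Membranes then bind 0.5 nM [3H]prazosin for 20 min at 37° C, and the reaction is stopped by filtration over GF/B filters, with 10 μM phentolamine giving nonspecific binding.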

For data set [5], the target named is T5, α1C Human Adrenergic Receptor (Homo sapiens, UniProt P35348).
T5 construct: The entire coding region of α1C (1401 bp); expressed in transfected cells
T5 sequence (P35348 1-466): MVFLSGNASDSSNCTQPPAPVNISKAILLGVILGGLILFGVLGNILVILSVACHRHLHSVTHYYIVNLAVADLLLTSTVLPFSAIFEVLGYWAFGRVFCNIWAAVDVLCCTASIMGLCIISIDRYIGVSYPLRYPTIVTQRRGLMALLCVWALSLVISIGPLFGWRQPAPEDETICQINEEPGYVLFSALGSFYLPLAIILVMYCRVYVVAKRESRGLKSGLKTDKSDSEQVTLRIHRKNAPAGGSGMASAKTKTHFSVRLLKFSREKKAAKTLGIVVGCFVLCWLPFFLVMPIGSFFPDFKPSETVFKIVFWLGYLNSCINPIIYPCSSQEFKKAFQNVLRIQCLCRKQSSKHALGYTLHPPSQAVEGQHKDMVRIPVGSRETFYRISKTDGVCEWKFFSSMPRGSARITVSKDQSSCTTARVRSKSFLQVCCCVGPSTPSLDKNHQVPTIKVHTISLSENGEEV
Description: Radioligand binding, [3H]prazosin, cloned human α1C adrenergic receptor. Particulars: cloned human receptor, LM(tk-) cell membranes, mean, read-out: PKi alpha-1 1c (converted). The essentials: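 Stably transfected mouse LM(tk−) fibroblast membranes bearing the cloned human α1C adrenoceptor served as receptor source. Specific binding was taken as the portion of 0.5 nM [3H]prazosin displaceable by 10 μM phentolamine after 20 min at 37° C., pH 7.5, in Mg2+/ascorbate-containing Tris buffer.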

Data set [6] has as its target T6, α1B Human Adrenergic Receptor (Homo sapiens, UniProt P35368).
T6 construct: The entire coding region of α1B (1563 bp); expressed in transfected cells
T6 sequence (P35368 1-520): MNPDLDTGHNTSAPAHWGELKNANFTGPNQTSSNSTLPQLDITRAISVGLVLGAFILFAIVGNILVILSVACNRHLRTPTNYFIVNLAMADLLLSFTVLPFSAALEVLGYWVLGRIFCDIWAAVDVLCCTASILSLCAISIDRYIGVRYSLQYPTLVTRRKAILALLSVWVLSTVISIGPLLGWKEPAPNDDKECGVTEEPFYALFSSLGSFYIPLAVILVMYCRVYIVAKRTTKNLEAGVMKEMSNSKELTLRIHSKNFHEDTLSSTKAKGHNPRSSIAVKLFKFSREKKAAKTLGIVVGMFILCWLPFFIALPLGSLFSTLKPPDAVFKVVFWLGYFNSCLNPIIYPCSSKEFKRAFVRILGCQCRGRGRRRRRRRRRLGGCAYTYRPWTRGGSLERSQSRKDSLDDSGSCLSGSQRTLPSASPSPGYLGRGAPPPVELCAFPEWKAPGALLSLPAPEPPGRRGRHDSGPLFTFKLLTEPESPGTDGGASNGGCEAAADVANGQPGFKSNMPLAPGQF
Description: Radioligand binding, [3H]prazosin, cloned human α1B adrenergic receptor. Particulars: cloned human receptor, LM(tk-) cell membranes, mean, read-out: PKi alpha-1 1b (converted). An outline of the steps:
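Membranes from stably transfected LM(tk−) cells, resuspended in 50 mM Tris-HCl, 1 mM MgCl2, 0.1% ascorbic acid, pH 7.5, were incubated with 0.5 nM [3H]prazosin for 20 min at 37° C. Nonspecific binding defined with 10 μM phentolamine; bound ligand separated by GF/B filtration.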

Data set [7] addresses T7, L-type calcium channel (Rattus norvegicus, UniProt P22002).
T7 construct: membrane fragments of rat cardiac muscle; from tissue; host or cells: rat cardiac muscle membranes
Description: Competition binding of [3H]nitrendipine to membrane fragments of rat cardiac muscle. Particulars: [3H]nitrendipine. How it is done:
as §1
Determination of the Activity of al Antagonists at Calcium Channels
Briefly, the tissue was minced and homogenized in 50 mM Tris-HCl (pH 7.4) containing 0.1 mM phenylmethylsulfonyl fluoride. The homogenates were centrifuged at 1000 g for 15 minutes, the resulting supernatant was centrifuged at 45,000 g for 15 minutes. The 45,000 g pellet was suspended in buffer and centrifuged a second time. Aliquots of membrane protein were incubated for 30 minutes at 37° C. in the presence of [3H]nitrendipine (1 nM), and nonspecific binding was determined in the presence of 10 μM nifedipine. The bound radioligand was separated by filtration through GF/B filters using a cell harvester.

T7 sequence (P22002 whole entry, other chains not shown, the tested form may be a part): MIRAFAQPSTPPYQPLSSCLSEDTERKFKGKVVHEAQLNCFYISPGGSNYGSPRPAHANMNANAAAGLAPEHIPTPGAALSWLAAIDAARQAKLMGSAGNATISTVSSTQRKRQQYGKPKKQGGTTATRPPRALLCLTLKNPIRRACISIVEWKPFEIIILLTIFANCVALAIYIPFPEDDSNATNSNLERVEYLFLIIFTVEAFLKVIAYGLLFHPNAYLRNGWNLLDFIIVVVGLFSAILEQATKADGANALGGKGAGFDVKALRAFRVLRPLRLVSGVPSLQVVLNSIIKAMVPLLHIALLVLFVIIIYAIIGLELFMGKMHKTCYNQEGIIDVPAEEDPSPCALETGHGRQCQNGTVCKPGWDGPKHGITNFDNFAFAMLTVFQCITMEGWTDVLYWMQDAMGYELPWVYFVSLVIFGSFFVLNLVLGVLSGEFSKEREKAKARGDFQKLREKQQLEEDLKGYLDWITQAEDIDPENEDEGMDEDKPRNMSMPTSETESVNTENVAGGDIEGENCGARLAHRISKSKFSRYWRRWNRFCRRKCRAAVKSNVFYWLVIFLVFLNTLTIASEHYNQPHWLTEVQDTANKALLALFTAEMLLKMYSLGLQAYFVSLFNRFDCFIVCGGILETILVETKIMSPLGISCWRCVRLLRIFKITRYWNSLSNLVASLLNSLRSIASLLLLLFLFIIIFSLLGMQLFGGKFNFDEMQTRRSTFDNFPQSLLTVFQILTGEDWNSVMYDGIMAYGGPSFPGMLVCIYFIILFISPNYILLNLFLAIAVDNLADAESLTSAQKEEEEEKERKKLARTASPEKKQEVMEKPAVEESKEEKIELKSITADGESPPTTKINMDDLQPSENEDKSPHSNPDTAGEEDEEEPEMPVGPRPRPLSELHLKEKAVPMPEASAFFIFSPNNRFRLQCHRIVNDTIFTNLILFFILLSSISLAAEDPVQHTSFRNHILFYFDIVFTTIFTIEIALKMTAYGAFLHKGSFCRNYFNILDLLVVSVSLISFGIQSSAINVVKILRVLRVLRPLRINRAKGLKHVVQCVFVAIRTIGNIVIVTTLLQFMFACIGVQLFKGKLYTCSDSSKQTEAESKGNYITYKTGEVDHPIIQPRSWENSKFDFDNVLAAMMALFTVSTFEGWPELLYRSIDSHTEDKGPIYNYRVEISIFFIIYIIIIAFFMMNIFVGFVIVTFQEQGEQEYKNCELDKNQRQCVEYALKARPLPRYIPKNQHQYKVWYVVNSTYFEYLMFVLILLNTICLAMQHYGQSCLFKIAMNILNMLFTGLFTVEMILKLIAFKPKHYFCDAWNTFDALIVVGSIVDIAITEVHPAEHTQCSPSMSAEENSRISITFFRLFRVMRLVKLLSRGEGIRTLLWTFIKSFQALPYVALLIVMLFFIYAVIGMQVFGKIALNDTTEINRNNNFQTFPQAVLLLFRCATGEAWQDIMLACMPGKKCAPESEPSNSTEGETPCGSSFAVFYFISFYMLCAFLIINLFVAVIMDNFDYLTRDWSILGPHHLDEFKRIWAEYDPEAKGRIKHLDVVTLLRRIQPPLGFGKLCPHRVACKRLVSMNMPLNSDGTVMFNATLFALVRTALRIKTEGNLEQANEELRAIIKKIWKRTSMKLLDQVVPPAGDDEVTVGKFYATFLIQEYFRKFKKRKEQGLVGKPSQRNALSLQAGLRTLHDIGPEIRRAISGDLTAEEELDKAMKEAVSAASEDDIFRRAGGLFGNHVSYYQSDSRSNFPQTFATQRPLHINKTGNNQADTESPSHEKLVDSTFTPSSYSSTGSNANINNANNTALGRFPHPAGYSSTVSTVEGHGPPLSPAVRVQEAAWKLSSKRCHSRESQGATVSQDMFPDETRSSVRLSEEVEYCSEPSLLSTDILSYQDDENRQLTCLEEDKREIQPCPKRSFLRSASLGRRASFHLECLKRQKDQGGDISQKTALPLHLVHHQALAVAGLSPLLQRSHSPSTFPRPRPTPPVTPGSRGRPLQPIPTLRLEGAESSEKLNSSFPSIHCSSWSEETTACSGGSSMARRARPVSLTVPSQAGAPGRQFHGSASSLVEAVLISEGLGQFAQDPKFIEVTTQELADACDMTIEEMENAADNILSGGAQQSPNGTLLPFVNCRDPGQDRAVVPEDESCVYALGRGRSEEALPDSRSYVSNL
T7 sequence (P54290 25-944 partner limits assumed, other chains not shown): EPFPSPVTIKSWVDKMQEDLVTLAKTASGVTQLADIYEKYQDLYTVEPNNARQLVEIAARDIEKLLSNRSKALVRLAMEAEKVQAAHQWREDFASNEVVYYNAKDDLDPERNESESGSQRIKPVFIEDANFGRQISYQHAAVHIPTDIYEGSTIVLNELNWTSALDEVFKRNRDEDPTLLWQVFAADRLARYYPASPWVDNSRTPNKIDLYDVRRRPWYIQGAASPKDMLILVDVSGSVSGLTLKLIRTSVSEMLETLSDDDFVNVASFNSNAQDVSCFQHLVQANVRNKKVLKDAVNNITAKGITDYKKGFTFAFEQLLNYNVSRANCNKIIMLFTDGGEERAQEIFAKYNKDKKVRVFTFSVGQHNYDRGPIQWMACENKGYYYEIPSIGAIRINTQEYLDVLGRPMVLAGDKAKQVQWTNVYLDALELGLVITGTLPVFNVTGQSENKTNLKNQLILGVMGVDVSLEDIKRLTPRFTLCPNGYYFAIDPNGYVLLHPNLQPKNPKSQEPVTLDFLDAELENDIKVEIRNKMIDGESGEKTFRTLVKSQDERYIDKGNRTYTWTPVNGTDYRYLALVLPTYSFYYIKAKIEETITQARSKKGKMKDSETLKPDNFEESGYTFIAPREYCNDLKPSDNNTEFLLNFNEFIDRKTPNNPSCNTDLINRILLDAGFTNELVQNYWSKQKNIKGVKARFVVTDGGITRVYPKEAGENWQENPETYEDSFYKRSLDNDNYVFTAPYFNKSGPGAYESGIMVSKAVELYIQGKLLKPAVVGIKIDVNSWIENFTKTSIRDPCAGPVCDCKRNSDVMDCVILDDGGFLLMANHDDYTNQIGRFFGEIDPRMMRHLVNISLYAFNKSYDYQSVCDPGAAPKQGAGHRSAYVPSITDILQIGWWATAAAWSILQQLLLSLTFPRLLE
T7 sequence (P54290 945-1091 partner limits assumed, other chains not shown): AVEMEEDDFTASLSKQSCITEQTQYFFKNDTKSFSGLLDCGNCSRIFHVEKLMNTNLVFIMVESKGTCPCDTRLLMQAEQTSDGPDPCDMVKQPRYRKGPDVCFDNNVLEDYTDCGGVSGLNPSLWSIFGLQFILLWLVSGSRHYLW

In the case of `COC(=O)C1(c2ccccc2)CCN(CCCNC(=O)C2=C(C)NC(C)=C(C(=O)O)C2c2ccc([N+](=O)[O-])cc2)CC1` (stereo not shown) [Example 204, 1,4-Dihydro-2,6-dimethyl-3-{N-[3-(4-methoxycarbonyl-4-phenylpiperidin-1-yl)propyl]}carboxamido-4-(4-nitrophenyl)pyridine-5-carboxylic acid], the melting point (commonly the temperature of the solid-liquid transition) lay in the range of 139 to 141 °C. For the same compound, the Ki in data set [1] is 1.23 µM. Besides, the Ki in data set [2] is 1.7 µM. Besides, the Ki in data set [3] was 1.17 µM.
Take `CCC1=C(C(=O)O)C(c2ccc([N+](=O)[O-])cc2)C(C(=O)NCCCN2CCC(c3ccccc3)CC2)=C(COC)N1` (stereo not shown) [Example 223, 6-Ethyl-1,4-dihydro-2-methyloxymethyl-4-(4-nitro)phenyl-3-(N-(3-(4-phenylpiperidin-1-yl)propyl))carboxamidopyridine-5-carboxylic Acid]: the Ki in data set [4] is 0.891 µM; in data set [5] it was 0.0347 µM; in data set [6], 0.174 µM; in data set [7] (rat cardiac muscle membranes, mean, read-out: PKi Ca (converted)) it was 275 µM.
In the case of `CCC1=C(C(N)=O)C(c2ccc([N+](=O)[O-])cc2)C(C(=O)NCCCN2CCC(c3ccccc3)(c3ccccc3)CC2)=C(COCCN)N1` (racemic) [(±)-144, 2-((2-Aminoethyl)oxy)methyl-5-carboxamido-6-ethyl-1,4-dihydro-4-(4-nitro)phenyl-3-(N-(3-(4,4-diphenylpiperidin-1-yl)propyl))carboxamidopyridine], the Ki in data set [7] (rat cardiac muscle membrane fragments, L-type calcium channel, read-out: pKi Ca (converted)) is 12.6 µM.
For `CCOC(=O)C1=C(C)NC(C)=C(C(=O)NCCCN2CCC(C(=O)OC)(c3ccccc3)CC2)C1c1ccc([N+](=O)[O-])cc1` (stereo not shown) [Example 208], the melting point was in the range of 73 to 75 °C. Further, the Ki in data set [1] was 0.977 µM. Moreover, in data set [4], the Ki is 0.741 µM. Besides, the Ki in data set [2] is 1.26 µM. Moreover, the Ki in data set [3] was 2.69 µM.
With `COC(=O)C1(c2ccccc2)CCN(CCCNC(=O)C2=C(C)NC(C)=C(C(=O)OCCO)C2c2ccc([N+](=O)[O-])cc2)CC1` (stereo not shown) [Example 207, 1,4-Dihydro-2,6-dimethyl-5-(2-hydroxyethoxycarbonyl)-3-{N-[3-(4-methoxycarbonyl-4-phenylpiperidin-1-yl)propyl]}carboxamido-4-(4-nitrophenyl)pyridine], the melting point fell in the range of 90 to 91 °C. Also, in data set [1], the Ki was 1.78 µM. The Ki in data set [4] was 1.86 µM. For the same compound, the Ki in data set [2] is 0.955 µM. Moreover, the Ki in data set [3] was 0.724 µM.

The record behind these values is patent US6608086B2, “Dihydropyridines and new uses thereof” (Synaptic Pharmaceutical Corporation, priority 1993, dated 2003).
